# Where a SMILES comes first, the peptide text is derived from it. [ ]: non-standard residue; d: D form.
# What was measured:
# MDREC 1229 = test: microbe, parasite or virus in culture; assay type: cell-based, Escherichia coli
# In short: (§1)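 Peptides were serially diluted twofold in Mueller-Hinton medium and combined 1:1 with bacterial suspensions prepared at 2×10^6 CFU. Readout was the minimal inhibitory concentration, i.e. the lowest concentration with no growth.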
# E. coli [1] = test: microbe, parasite or virus in culture; assay type: cell-based, Escherichia coli; conditions: 16 h
# In short: as §1
# S. typhimurium = test: microbe, parasite or virus in culture; assay type: cell-based, Salmonella typhimurium
# In short: as §1
# MRSA 3126 = assay type: cell-based, Staphylococcus aureus; conditions: 3126
# In short: as §1
# MRSA 3114 = assay type: cell-based, Staphylococcus aureus; conditions: 3114
# In short: as §1
# B. subtilis = test: microbe, parasite or virus in culture; assay type: cell-based, Bacillus subtilis
# In short: as §1
# MDRST 8007 = test: Minimal inhibitory concentration (MIC), single agent; assay type: cell-based, Salmonella typhimurium; conditions: agent alone
# In short: as §1
# MDRAB 12035 = test: microbe, parasite or virus in culture; assay type: cell-based, Acinetobacter baumannii
# In short: as §1
# A. baumannii = test: microbe, parasite or virus in culture; assay type: cell-based, Acinetobacter baumannii; conditions: for Antibacterial activity relative to PapMA-1: A. baumannii and S. typhimurium
# In short: as §1
# S. aureus = test: microbe, parasite or virus in culture; assay type: cell-based, Staphylococcus aureus
# In short: as §1
# MDRPA 2002 = assay type: cell-based, Pseudomonas aeruginosa
# In short: as §1
# [2] = system: multi-drug resistant bacteria; test: MIC, summary statements for multi-drug resistant bacteria; assay type: cell-based
# In short: as §1
# E. coli [3] = test: MIC of antibiotic during combined treatment with antimicrobial peptide; assay type: cell-based, Escherichia coli; conditions: for Synergistic effect of antibacterial activity with existing antibiotics compared with PapMA-1: E. coli and MDREC1229; for Antibiotic MIC, Erythromycin / Antibiotic MIC, Linezolid / Antibiotic MIC, Vancomycin: E. coli
# In short: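 First, antibiotic solution is diluted with MH medium; next, the dilution is dispensed into wells containing peptide; finally, the orientation is swapped and MIC of each mixture determined.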
# [4] = erythromycin combined with peptide at 1 μg/ml
# [5] = erythromycin combined with peptide at 2 μg/ml
# [6] = erythromycin combined with peptide at 4 μg/ml
# [7] = erythromycin combined with peptide at 6 μg/ml
# [8] = erythromycin combined with peptide at 8 μg/ml
# [9] = erythromycin combined with peptide at 16 μg/ml
# [10] = erythromycin combined with peptide at 32 μg/ml
# [11] = erythromycin combined with peptide at 64 μg/ml
# [12] = linezolid combined with peptide at 1 μg/ml
# [13] = linezolid combined with peptide at 2 μg/ml
# [14] = linezolid combined with peptide at 4 μg/ml
# [15] = linezolid combined with peptide at 6 μg/ml
# [16] = linezolid combined with peptide at 8 μg/ml
# [17] = linezolid combined with peptide at 16 μg/ml
# [18] = linezolid combined with peptide at 32 μg/ml
# [19] = linezolid combined with peptide at 64 μg/ml
# [20] = vancomycin combined with peptide at 1 μg/ml
# [21] = vancomycin combined with peptide at 2 μg/ml
# [22] = vancomycin combined with peptide at 4 μg/ml
# [23] = vancomycin combined with peptide at 6 μg/ml
# [24] = vancomycin combined with peptide at 8 μg/ml
# [25] = vancomycin combined with peptide at 16 μg/ml
# [26] = vancomycin combined with peptide at 32 μg/ml
# [27] = vancomycin combined with peptide at 64 μg/ml
structure (smiles),measurement,setting,value
"CC[C@H](C)[C@H](NC(=O)[C@H](CCCCN)NC(=O)[C@H](Cc1c[nH]c2ccccc12)NC(=O)[C@@H](N)CCCNC(=N)N)C(=O)N[C@@H](Cc1ccccc1)C(=O)N[C@@H](CCCCN)C(=O)N[C@@H](CCCCN)C(=O)N[C@H](C(=O)N[C@H](CC(C)C)C(=O)N[C@@H](CCCCN)C(=O)N[C@@H](CC(C)C)C(=O)N[C@@H](CC(C)C)C(=O)N[C@@H](Cc1c[nH]cn1)C(=O)N[C@@H](CCC(=O)O)C(=O)N[C@@H](Cc1ccccc1)C(=O)N[C@@H](CCCCN)C(=O)N[C@@H](CCCCN)C(=O)N[C@@H](Cc1ccccc1)C(N)=O)[C@@H](C)CC [PapMA-23, RWK IFK KIl KLL HEF KKF-NH2] (H-RWKIFKKI[dL]KLLHEFKKF-NH2; N-terminus assumed)",Minimal inhibitory concentration MIC,MDREC 1229,32 µg/mL
same,"Peptide MIC, peptide alone",MDREC 1229,32 µg/mL
same,Minimal inhibitory concentration MIC,E. coli [1],32 µg/mL
same,Minimal inhibitory concentration MIC,S. typhimurium,32 µg/mL
same,Minimal inhibitory concentration MIC,MRSA 3126,>128 µg/mL
same,Minimal inhibitory concentration MIC,MRSA 3114,>128 µg/mL
same,Minimal inhibitory concentration MIC,B. subtilis,>128 µg/mL
same,Minimal inhibitory concentration MIC,MDRST 8007,64 µg/mL
same,Minimal inhibitory concentration MIC,MDRAB 12035,32 µg/mL
same,"Peptide MIC, peptide alone",MDRAB 12035,32 µg/mL
same,Minimal inhibitory concentration MIC,A. baumannii,32 µg/mL
same,"Peptide MIC, peptide alone",A. baumannii,32 µg/mL
same,Antibacterial activity relative to PapMA-1,A. baumannii,at least twice as high
same,Minimal inhibitory concentration MIC,S. aureus,>128 µg/mL
same,Minimal inhibitory concentration MIC,MDRPA 2002,64 µg/mL
same,Antibacterial activity relative to PapMA-1,[2],twice to four times higher
same,Synergistic effect of antibacterial activity with existing antibiotics compared with PapMA-1,E. coli [3],level similar to that of the PapMA-1 peptide
same,"Antibiotic MIC, Erythromycin",E. coli [3]; [4],128 µg/mL
same,"Antibiotic MIC, Erythromycin",E. coli [3]; [5],64 µg/mL
same,"Antibiotic MIC, Erythromycin",E. coli [3]; [6],16 µg/mL
same,"Antibiotic MIC, Erythromycin",E. coli [3]; [7],4 µg/mL
same,"Antibiotic MIC, Erythromycin",E. coli [3]; [8],2 µg/mL
same,"Antibiotic MIC, Erythromycin",E. coli [3]; [9],0.5 µg/mL
same,"Antibiotic MIC, Erythromycin",E. coli [3]; [10],0 µg/mL
same,"Antibiotic MIC, Erythromycin",E. coli [3]; [11],0 µg/mL
same,"Antibiotic MIC, Linezolid",E. coli [3]; [12],>128 µg/mL
same,"Antibiotic MIC, Linezolid",E. coli [3]; [13],128 µg/mL
same,"Antibiotic MIC, Linezolid",E. coli [3]; [14],64 µg/mL
same,"Antibiotic MIC, Linezolid",E. coli [3]; [15],32 µg/mL
same,"Antibiotic MIC, Linezolid",E. coli [3]; [16],16 µg/mL
same,"Antibiotic MIC, Linezolid",E. coli [3]; [17],16 µg/mL
same,"Antibiotic MIC, Linezolid",E. coli [3]; [18],0 µg/mL
same,"Antibiotic MIC, Linezolid",E. coli [3]; [19],0 µg/mL
same,"Antibiotic MIC, Vancomycin",E. coli [3]; [20],>128 µg/mL
same,"Antibiotic MIC, Vancomycin",E. coli [3]; [21],>128 µg/mL
same,"Antibiotic MIC, Vancomycin",E. coli [3]; [22],>128 µg/mL
same,"Antibiotic MIC, Vancomycin",E. coli [3]; [23],64 µg/mL
same,"Antibiotic MIC, Vancomycin",E. coli [3]; [24],16 µg/mL
same,"Antibiotic MIC, Vancomycin",E. coli [3]; [25],8 µg/mL
same,"Antibiotic MIC, Vancomycin",E. coli [3]; [26],0 µg/mL
same,"Antibiotic MIC, Vancomycin",E. coli [3]; [27],0 µg/mL
"CC[C@H](C)[C@H](NC(=O)[C@H](CCCCN)NC(=O)[C@H](Cc1c[nH]c2ccccc12)NC(=O)[C@@H](N)CCCNC(=N)N)C(=O)N[C@@H](Cc1ccccc1)C(=O)N[C@@H](CCCCN)C(=O)N[C@@H](CCCCN)C(=O)N[C@H](C(=O)N1CCC[C@H]1C(=O)N[C@@H](CCCCN)C(=O)N[C@@H](CC(C)C)C(=O)N[C@@H](CC(C)C)C(=O)N[C@@H](Cc1c[nH]cn1)C(=O)N[C@@H](CCC(=O)O)C(=O)N[C@@H](C)C(=O)N[C@@H](CCCCN)C(=O)N[C@@H](CCCCN)C(=O)N[C@@H](Cc1c[nH]c2ccccc12)C(N)=O)[C@@H](C)CC [PapMA-13, RWK IFK KIP KLL HEA KKW-NH2] (H-RWKIFKKIPKLLHEAKKW-NH2; N-terminus assumed)",Minimal inhibitory concentration MIC,MDREC 1229,16 µg/mL
same,"Peptide MIC, peptide alone",MDREC 1229,16 µg/mL
same,Minimal inhibitory concentration MIC,E. coli [1],16 µg/mL
same,Minimal inhibitory concentration MIC,S. typhimurium,16 µg/mL
same,Minimal inhibitory concentration MIC,MRSA 3126,>128 µg/mL
same,Minimal inhibitory concentration MIC,MRSA 3114,>128 µg/mL
same,Minimal inhibitory concentration MIC,B. subtilis,>128 µg/mL
same,Minimal inhibitory concentration MIC,MDRST 8007,16 µg/mL
same,Minimal inhibitory concentration MIC,MDRAB 12035,16 µg/mL
same,"Peptide MIC, peptide alone",MDRAB 12035,16 µg/mL
same,Minimal inhibitory concentration MIC,A. baumannii,16 µg/mL
same,"Peptide MIC, peptide alone",A. baumannii,16 µg/mL
same,Antibacterial activity relative to PapMA-1,A. baumannii,at least twice as high
same,Minimal inhibitory concentration MIC,S. aureus,>128 µg/mL
same,Minimal inhibitory concentration MIC,MDRPA 2002,128 µg/mL
same,Antibacterial activity relative to PapMA-1,[2],twice to four times higher
same,Synergistic effect of antibacterial activity with existing antibiotics compared with PapMA-1,E. coli [3],higher level than the PapMA-1 peptide
same,"Antibiotic MIC, Erythromycin",E. coli [3]; [4],64 µg/mL
same,"Antibiotic MIC, Erythromycin",E. coli [3]; [5],16 µg/mL
same,"Antibiotic MIC, Erythromycin",E. coli [3]; [6],2 µg/mL
same,"Antibiotic MIC, Erythromycin",E. coli [3]; [7],1 µg/mL
same,"Antibiotic MIC, Erythromycin",E. coli [3]; [8],0.25 µg/mL
same,"Antibiotic MIC, Erythromycin",E. coli [3]; [9],0 µg/mL
same,"Antibiotic MIC, Erythromycin",E. coli [3]; [10],0 µg/mL
same,"Antibiotic MIC, Erythromycin",E. coli [3]; [11],0 µg/mL
same,"Antibiotic MIC, Linezolid",E. coli [3]; [12],>128 µg/mL
same,"Antibiotic MIC, Linezolid",E. coli [3]; [13],64 µg/mL
same,"Antibiotic MIC, Linezolid",E. coli [3]; [14],8 µg/mL
same,"Antibiotic MIC, Linezolid",E. coli [3]; [15],4 µg/mL
same,"Antibiotic MIC, Linezolid",E. coli [3]; [16],1 µg/mL
same,"Antibiotic MIC, Linezolid",E. coli [3]; [17],0 µg/mL
same,"Antibiotic MIC, Linezolid",E. coli [3]; [18],0 µg/mL
same,"Antibiotic MIC, Linezolid",E. coli [3]; [19],0 µg/mL
same,"Antibiotic MIC, Vancomycin",E. coli [3]; [20],>128 µg/mL
same,"Antibiotic MIC, Vancomycin",E. coli [3]; [21],64 µg/mL
same,"Antibiotic MIC, Vancomycin",E. coli [3]; [22],16 µg/mL
same,"Antibiotic MIC, Vancomycin",E. coli [3]; [23],8 µg/mL
same,"Antibiotic MIC, Vancomycin",E. coli [3]; [24],2 µg/mL
same,"Antibiotic MIC, Vancomycin",E. coli [3]; [25],0 µg/mL
same,"Antibiotic MIC, Vancomycin",E. coli [3]; [26],0 µg/mL
same,"Antibiotic MIC, Vancomycin",E. coli [3]; [27],0 µg/mL
